Several values for one entry are separate records, joined by “and”; a condition that tells them apart may be missing. Equal values may be shown once. Toxic doses and inconclusive results are not listed. The calls were made as follows: active = survival T/C of 150% or more; inactive = T/C below 125% in these data.
Tested on: P388 leukemia ip, CD2F1 mice, survival T/C
Assay: NCI In Vivo Anticancer Drug Screen. Data for tumor model P388 Leukemia (intraperitoneal) in CD2F1 (CDF1) mice
Details: endpoint: median survival time, higher = longer survival
Outline: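 Mice carrying the transplanted tumor received test compound or vehicle. Survival was recorded in each group, and the value is the treated-group measurement divided by that of the vehicle-treated control group.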

[1] = dose: 50.0 mg/kg/injection, schedule: Q01DX009 (ip), vehicle: saline with Tween-80
[2] = dose: 100.0 mg/kg/injection, schedule: Q01DX009 (ip), vehicle: saline with Tween-80
[3] = dose: 200.0 mg/kg/injection, schedule: Q01DX009 (ip), vehicle: saline with Tween-80
[4] = dose: 50.0 mg/kg/injection, schedule: Q01DX005 (ip), vehicle: saline with Tween-80
[5] = dose: 100.0 mg/kg/injection, schedule: Q01DX005 (ip), vehicle: saline with Tween-80
[6] = dose: 200.0 mg/kg/injection, schedule: Q01DX005 (ip), vehicle: saline with Tween-80
[7] = dose: 60.0 mg/kg/injection, schedule: Q01DX005 (ip), vehicle: saline with Tween-80
[8] = dose: 50.0 mg/kg/injection, schedule: Q01DX005 (ip), vehicle: Klucel (hydroxypropylcellulose) (HPC)
[9] = dose: 100.0 mg/kg/injection, schedule: Q01DX005 (ip), vehicle: Klucel (hydroxypropylcellulose) (HPC)
[10] = dose: 200.0 mg/kg/injection, schedule: Q01DX005 (ip), vehicle: Klucel (hydroxypropylcellulose) (HPC)
[11] = dose: 6.25 mg/kg/injection, schedule: Q01DX009 (ip), vehicle: Klucel (hydroxypropylcellulose) (HPC)
[12] = dose: 12.5 mg/kg/injection, schedule: Q01DX009 (ip), vehicle: Klucel (hydroxypropylcellulose) (HPC)
[13] = dose: 25.0 mg/kg/injection, schedule: Q01DX009 (ip), vehicle: Klucel (hydroxypropylcellulose) (HPC)

Measured: T/C

Cc1ccc2c(c1)S(=O)(=O)c1ccc3ccccc3c1N2
inactive: [4] 101 % of control | [5] 99 % of control | [6] 100 % of control

COc1ccccc1NC(=S)N/N=C\c1nc2ccccc2c2ccccc12
inactive: dose: 75.0 mg/kg/injection, schedule: Q04DX002 (ip), vehicle: Klucel (hydroxypropylcellulose) (HPC) 99 % of control | dose: 150.0 mg/kg/injection, schedule: Q04DX002 (ip), vehicle: Klucel (hydroxypropylcellulose) (HPC) 96 % of control | dose: 300.0 mg/kg/injection, schedule: Q04DX002 (ip), vehicle: Klucel (hydroxypropylcellulose) (HPC) 96 % of control

CN(C)/C=N\c1ncnc2c1c(C#N)cn2C1OC(CO)C(O)C1O (centres undefined)
inactive: dose: 7.5 mg/kg/injection, schedule: Q01DX005 (ip), vehicle: Klucel (hydroxypropylcellulose) (HPC) 104 % of control and 112 % of control | dose: 15.0 mg/kg/injection, schedule: Q01DX005 (ip), vehicle: Klucel (hydroxypropylcellulose) (HPC) 120 % of control and 121 % of control

Cc1ccc(NC(=S)C#N)c(C)c1
inactive: dose: 15.0 mg/kg/injection, schedule: Q01DX005 (ip), vehicle: saline with Tween-80 102 % of control | dose: 30.0 mg/kg/injection, schedule: Q01DX005 (ip), vehicle: saline with Tween-80 98 % of control | [7] 98 % of control and 106 % of control

O=C1CCC2OC3CCC(=O)N3CN12 (centres undefined)
inactive: [4] 97 % of control | [5] 98 % of control | [6] 98 % of control

CCOP(=O)(N=Nc1ccc(OC)nc1)OCC
inactive: dose: 12.5 mg/kg/injection, schedule: Q01DX005 (ip), vehicle: saline 102 % of control | dose: 25.0 mg/kg/injection, schedule: Q01DX005 (ip), vehicle: saline 109 % of control | dose: 50.0 mg/kg/injection, schedule: Q01DX005 (ip), vehicle: saline 100 % of control | dose: 100.0 mg/kg/injection, schedule: Q01DX005 (ip), vehicle: saline 108 % of control | dose: 1560.0 micrograms/kg/injection, schedule: Q01DX009 (ip), vehicle: saline 104 % of control | dose: 3125.0 micrograms/kg/injection, schedule: Q01DX009 (ip), vehicle: saline 102 % of control | dose: 6250.0 micrograms/kg/injection, schedule: Q01DX009 (ip), vehicle: saline 108 % of control | dose: 12500.0 micrograms/kg/injection, schedule: Q01DX009 (ip), vehicle: saline 106 % of control | dose: 25000.0 micrograms/kg/injection, schedule: Q01DX009 (ip), vehicle: saline 112 % of control

C/C(=N\NC(=S)N1CCCC1)c1ccc[nH]1
inactive: [8] 102 % of control | [9] 114 % of control | [10] 89 % of control

COC(=O)C(CS[C@@H]1CCCC[C@@H]1O)NC(C)=O (some centres undefined)
inactive: dose: 50.0 mg/kg/injection, schedule: Q01DX005 (ip), vehicle: suspension in saline 100 % of control | dose: 100.0 mg/kg/injection, schedule: Q01DX005 (ip), vehicle: suspension in saline 99 % of control | dose: 200.0 mg/kg/injection, schedule: Q01DX005 (ip), vehicle: suspension in saline 95 % of control

CC1CCN(C(=S)NNC(C)c2cc3ccccc3cn2)CC1 (centres undefined)
inactive: dose: 6.25 mg/kg/injection, schedule: Q01DX005 (ip), vehicle: saline with Tween-80 114 % of control

CCOC(=O)C(Cc1ccc(N(CCCl)CCCl)cc1)NC(=O)C(N)CCC(=O)O (centres undefined)
active: dose: 5.0 mg/kg/injection, schedule: Q04DX003 (ip), vehicle: water 166 % of control | [11] 169 % of control | dose: 10.0 mg/kg/injection, schedule: Q04DX003 (ip), vehicle: water 161 % of control and 196 % of control | [12] 202 % of control and 247 % of control | dose: 20.0 mg/kg/injection, schedule: Q04DX003 (ip), vehicle: water 233 % of control and 321 % of control | [13] 196 % of control
inactive: dose: 50.0 mg/kg/injection, schedule: Q01DX009 (ip), vehicle: Klucel (hydroxypropylcellulose) (HPC) 92 % of control
122 % of control and 348 % of control: dose: 40.0 mg/kg/injection, schedule: Q04DX003 (ip), vehicle: water

O/N=C/c1cccc(O)c1O
inactive: [4] 96 % of control | [5] 107 % of control

CC1/C(=N\N=C(N)N)c2ccccc2/C1=N/N=C(N)N (centres undefined)
inactive: dose: 25.0 mg/kg/injection, schedule: Q01DX001 (ip), vehicle: saline 106 % of control | dose: 50.0 mg/kg/injection, schedule: Q01DX001 (ip), vehicle: saline 102 % of control | dose: 100.0 mg/kg/injection, schedule: Q01DX001 (ip), vehicle: saline 99 % of control

CCCCCc1cc(O)cc2c1Oc1cc(O)cc(C(=O)CCCC)c1C(=O)O2
inactive: [4] 98 % of control | [5] 100 % of control | [6] 107 % of control

COc1cc(O)c2c(=O)c3c(O)c(OC4OC(COC5OC(C)C(O)C(O)C5O)C(O)C(O)C4O)ccc3oc2c1 (centres undefined)
inactive: dose: 1.5 mg/kg/injection, schedule: Q01DX009 (ip), vehicle: saline 107 % of control | dose: 3.0 mg/kg/injection, schedule: Q01DX009 (ip), vehicle: saline 103 % of control | dose: 6.0 mg/kg/injection, schedule: Q01DX009 (ip), vehicle: saline 100 % of control | dose: 12.0 mg/kg/injection, schedule: Q01DX009 (ip), vehicle: saline 99 % of control

CCCCCCCCOC(=O)NCCCCC(N)C(=O)O (centres undefined)
inactive: dose: 50.0 mg/kg/injection, schedule: Q01DX009 (ip), vehicle: saline 87 % of control | dose: 100.0 mg/kg/injection, schedule: Q01DX009 (ip), vehicle: saline 101 % of control | dose: 200.0 mg/kg/injection, schedule: Q01DX009 (ip), vehicle: saline 103 % of control

CCCCC[P+](c1ccccc1)(c1ccccc1)c1ccccc1
inactive: dose: 1.56 mg/kg/injection, schedule: Q01DX009 (ip), vehicle: Klucel (hydroxypropylcellulose) (HPC) 105 % of control | dose: 3.12 mg/kg/injection, schedule: Q01DX009 (ip), vehicle: Klucel (hydroxypropylcellulose) (HPC) 111 % of control | dose: 3.13 mg/kg/injection, schedule: Q01DX009 (ip), vehicle: Klucel (hydroxypropylcellulose) (HPC) 121 % of control | [11] 121 % of control | [12] 93 % of control | [13] 100 % of control

OC1c2cccn2-c2cc(Cl)ccc2SC1c1ccccc1 (centres undefined)
inactive: [7] 99 % of control | dose: 120.0 mg/kg/injection, schedule: Q01DX005 (ip), vehicle: saline with Tween-80 101 % of control | dose: 240.0 mg/kg/injection, schedule: Q01DX005 (ip), vehicle: saline with Tween-80 100 % of control

CCCCCC[Se][Se]CCCCCC
inactive: dose: 3.12 mg/kg/injection, schedule: Q01DX005 (ip), vehicle: Klucel (hydroxypropylcellulose) (HPC) 98 % of control | dose: 6.25 mg/kg/injection, schedule: Q01DX005 (ip), vehicle: Klucel (hydroxypropylcellulose) (HPC) 97 % of control | dose: 12.5 mg/kg/injection, schedule: Q01DX005 (ip), vehicle: Klucel (hydroxypropylcellulose) (HPC) 106 % of control | dose: 25.0 mg/kg/injection, schedule: Q01DX005 (ip), vehicle: Klucel (hydroxypropylcellulose) (HPC) 104 % of control

Cc1ccc(N=c2oc(-c3ccccc3)cs2)cc1
inactive: dose: 100.0 mg/kg/injection, schedule: Q01DX001 (ip), vehicle: saline with Tween-80 90 % of control | dose: 200.0 mg/kg/injection, schedule: Q01DX001 (ip), vehicle: saline with Tween-80 89 % of control | dose: 400.0 mg/kg/injection, schedule: Q01DX001 (ip), vehicle: saline with Tween-80 88 % of control

Cc1ncn2c(C)nnc2c1C
inactive: [1] 102 % of control | [2] 100 % of control | [3] 102 % of control

C[n+]1c2cc(N)ccc2cc2ccc(N)cc21
active: dose: 6.25 mg/kg/injection, schedule: Q01DX009 (ip), vehicle: saline 153 % of control | dose: 12.5 mg/kg/injection, schedule: Q01DX009 (ip), vehicle: saline 164 % of control
inactive: dose: 3.12 mg/kg/injection, schedule: Q01DX005 (ip), vehicle: suspension in saline 121 % of control | dose: 6.25 mg/kg/injection, schedule: Q01DX005 (ip), vehicle: suspension in saline 117 % of control

CC(C)N(C(N)=O)c1ccc2c(c1)OCO2
inactive: [1] 98 % of control | [2] 107 % of control | [3] 98 % of control

COC(=O)C1=C(O)/C(=C\c2ccccc2)NC1=O
inactive: [8] 101 % of control | [9] 108 % of control | [10] 104 % of control

CCCCCCCCCCCCCCCCS[As](C)C
inactive: [4] 92 % of control | [5] 100 % of control | [6] 96 % of control

Reference: PubChem BioAssay AID330 (DTP/NCI, 2004)
